The target in test [1] is T1, Protein deacetylase HDAC6 (Homo sapiens, UniProt Q9UBN7).
T1 sequence (Q9UBN7 whole entry): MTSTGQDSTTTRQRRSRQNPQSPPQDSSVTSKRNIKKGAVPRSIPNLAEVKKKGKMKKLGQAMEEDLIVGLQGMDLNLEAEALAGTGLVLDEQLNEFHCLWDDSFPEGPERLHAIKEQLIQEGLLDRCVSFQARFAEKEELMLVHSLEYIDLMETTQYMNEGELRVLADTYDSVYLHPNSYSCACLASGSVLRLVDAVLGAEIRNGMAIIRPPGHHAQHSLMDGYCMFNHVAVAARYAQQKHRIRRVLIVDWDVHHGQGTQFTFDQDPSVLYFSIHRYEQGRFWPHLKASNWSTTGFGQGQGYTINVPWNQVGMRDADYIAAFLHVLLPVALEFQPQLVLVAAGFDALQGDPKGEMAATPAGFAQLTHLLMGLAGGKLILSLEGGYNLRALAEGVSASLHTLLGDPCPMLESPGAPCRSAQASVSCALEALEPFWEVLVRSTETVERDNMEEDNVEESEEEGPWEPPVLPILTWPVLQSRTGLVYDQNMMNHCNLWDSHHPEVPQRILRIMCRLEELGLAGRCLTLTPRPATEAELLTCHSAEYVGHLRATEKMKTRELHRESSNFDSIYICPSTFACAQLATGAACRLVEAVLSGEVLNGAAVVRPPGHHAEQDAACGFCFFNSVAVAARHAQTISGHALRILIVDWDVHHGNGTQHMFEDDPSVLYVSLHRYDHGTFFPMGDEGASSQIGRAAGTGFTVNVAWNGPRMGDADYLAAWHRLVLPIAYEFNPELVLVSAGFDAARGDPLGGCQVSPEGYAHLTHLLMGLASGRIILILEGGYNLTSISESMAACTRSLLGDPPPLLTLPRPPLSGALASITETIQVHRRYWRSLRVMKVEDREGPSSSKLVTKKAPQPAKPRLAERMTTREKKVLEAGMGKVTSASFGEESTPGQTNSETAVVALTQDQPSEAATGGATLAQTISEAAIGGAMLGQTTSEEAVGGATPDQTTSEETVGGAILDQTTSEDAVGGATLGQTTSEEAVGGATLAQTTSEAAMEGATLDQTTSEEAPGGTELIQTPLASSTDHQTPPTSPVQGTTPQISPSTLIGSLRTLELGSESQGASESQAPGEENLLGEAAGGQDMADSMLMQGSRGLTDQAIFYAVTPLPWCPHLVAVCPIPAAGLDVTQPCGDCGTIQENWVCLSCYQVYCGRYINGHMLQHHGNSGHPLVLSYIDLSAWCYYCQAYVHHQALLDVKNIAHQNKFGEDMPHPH
Briefly: Inhibition of full length human N-terminal FLAG-tagged HDAC6 (1 to 1215 residues) expressed in HEK293 cells preincubated for 15 mins followed by acetyl-Gly-Ala-[acetyl-Lys]-AMC substrate addition measured after 30 mins by fluorimetric method. It is filed as cell-based.

The next test has as its target T2, Histone deacetylase 8 (Homo sapiens, UniProt Q9BY41).
T2 sequence (Q9BY41 whole entry): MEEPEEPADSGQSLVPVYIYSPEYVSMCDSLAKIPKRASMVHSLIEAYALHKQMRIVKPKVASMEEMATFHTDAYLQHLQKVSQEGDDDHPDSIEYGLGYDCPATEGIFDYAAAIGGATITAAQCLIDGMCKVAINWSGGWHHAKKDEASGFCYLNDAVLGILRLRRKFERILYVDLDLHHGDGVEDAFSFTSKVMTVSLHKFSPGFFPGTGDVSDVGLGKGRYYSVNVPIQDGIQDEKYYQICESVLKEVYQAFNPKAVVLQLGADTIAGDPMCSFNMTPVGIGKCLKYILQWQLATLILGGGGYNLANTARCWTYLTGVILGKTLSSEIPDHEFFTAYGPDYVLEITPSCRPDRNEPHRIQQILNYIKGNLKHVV
Briefly: Inhibition of full length human N-terminal FLAG-tagged HDAC8 (1 to 377 residues) expressed in HEK293 cells preincubated for 15 mins followed by Boc-[trifluoroacetyl-Lys]-AMC substrate addition measured after 30 mins by fluorimetric method. In kind it is cell-based.

The values that follow come from ChEMBL document CHEMBL4325935, “Molecular Basis for the Selective Inhibition of Histone Deacetylase 6 by a Mercaptoacetamide Inhibitor” (ACS Med Chem Lett, 2018).

Broadly, the IC50 is the concentration that gives 50% inhibition. The low end stands for higher potency, the high end for lower potency.

Consider `O=C(CS)NCCCCCn1ccc2cc(Cl)c(Cl)cc21`, for which the results for the IC50 (in test [1]; against Histone deacetylase 8) were 0.05 µM and 12 µM, respectively.
